The structures appear in SMILES notation.

Assay in all cases: Kinase panel profiling at 1 µmol/L (MSA or IMAP), percentage inhibition
Common to all, as to type: biochemical

The target in test [1] is panel of 255 wild-type kinases (Homo sapiens, UniProt Q13164). Conditions: kinase Erk5; 1 µmol/L single concentration; read-out: %-inhibition at 1 µmol/L, Erk5.
Test [2] addresses panel of 255 wild-type kinases (Homo sapiens, UniProt P07947). Conditions: kinase YES; 1 µmol/L single concentration; read-out: %-inhibition at 1 µmol/L, YES.
Test [3] concerns the target panel of 255 wild-type kinases (Homo sapiens, UniProt P51812). Conditions: kinase RSK2; 1 µmol/L single concentration; read-out: %-inhibition at 1 µmol/L, RSK2.
Test [4] has as its target panel of 255 wild-type kinases (Homo sapiens, UniProt O96017). Conditions: CHK2 kinase assay; 1 µmol/L single concentration; read-out: %-inhibition CHK2.
Test [5] concerns the target panel of 255 wild-type kinases (Homo sapiens, UniProt P48730). Conditions: kinase CK1δ; 1 µmol/L single concentration; read-out: %-inhibition at 1 µmol/L, CK1δ.
Test [6] deals with panel of 255 wild-type kinases (Homo sapiens, UniProt Q04912). Conditions: kinase RON; 1 µmol/L single concentration; read-out: %-inhibition at 1 µmol/L, RON.
Test [7] concerns the target panel of 255 wild-type kinases (Homo sapiens, UniProt Q9UK32). Conditions: kinase RSK4; 1 µmol/L single concentration; read-out: %-inhibition at 1 µmol/L, RSK4.
Test [8] concerns the target panel of 255 wild-type kinases (Homo sapiens, UniProt Q9UKE5). Conditions: kinase TNIK; 1 µmol/L single concentration; read-out: %-inhibition at 1 µmol/L, TNIK.
Test [9] concerns the target panel of 255 wild-type kinases (Homo sapiens, UniProt P05129). Conditions: kinase PKCγ; 1 µmol/L single concentration; read-out: %-inhibition at 1 µmol/L, PKCγ.
In test [10] the target is T1, panel of 255 wild-type kinases (Homo sapiens, UniProt P21709).
T1 sequence (P21709 26-976): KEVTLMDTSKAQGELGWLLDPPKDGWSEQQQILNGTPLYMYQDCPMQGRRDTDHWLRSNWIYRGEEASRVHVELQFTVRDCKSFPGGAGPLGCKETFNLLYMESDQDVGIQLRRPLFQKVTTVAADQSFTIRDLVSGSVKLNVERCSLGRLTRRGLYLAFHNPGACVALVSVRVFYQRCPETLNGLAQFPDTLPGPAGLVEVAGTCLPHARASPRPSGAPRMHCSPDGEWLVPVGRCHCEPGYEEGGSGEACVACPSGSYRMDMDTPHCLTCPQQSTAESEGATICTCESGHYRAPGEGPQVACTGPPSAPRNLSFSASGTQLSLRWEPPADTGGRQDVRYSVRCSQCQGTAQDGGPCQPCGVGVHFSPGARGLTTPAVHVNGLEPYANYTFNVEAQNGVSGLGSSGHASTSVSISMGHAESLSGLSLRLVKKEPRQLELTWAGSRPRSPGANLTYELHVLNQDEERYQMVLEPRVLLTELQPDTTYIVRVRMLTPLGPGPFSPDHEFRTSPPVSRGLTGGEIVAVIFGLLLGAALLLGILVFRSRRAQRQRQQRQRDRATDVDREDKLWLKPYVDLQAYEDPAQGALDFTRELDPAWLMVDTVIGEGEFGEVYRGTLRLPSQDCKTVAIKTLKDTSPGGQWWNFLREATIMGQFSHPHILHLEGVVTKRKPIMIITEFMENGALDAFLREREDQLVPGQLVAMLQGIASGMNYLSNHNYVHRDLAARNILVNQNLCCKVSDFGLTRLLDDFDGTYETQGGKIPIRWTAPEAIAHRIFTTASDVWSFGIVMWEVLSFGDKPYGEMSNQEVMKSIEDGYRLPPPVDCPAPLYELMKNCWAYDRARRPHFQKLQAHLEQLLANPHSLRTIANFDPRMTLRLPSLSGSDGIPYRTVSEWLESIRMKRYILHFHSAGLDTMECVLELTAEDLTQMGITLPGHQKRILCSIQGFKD
Conditions: kinase EPHA1; 1 µmol/L single concentration; read-out: %-inhibition at 1 µmol/L, EPHA1.

For test [11], the target named is T2, panel of 255 wild-type kinases (Homo sapiens, UniProt Q14164).
T2 sequence (Q14164 1-716): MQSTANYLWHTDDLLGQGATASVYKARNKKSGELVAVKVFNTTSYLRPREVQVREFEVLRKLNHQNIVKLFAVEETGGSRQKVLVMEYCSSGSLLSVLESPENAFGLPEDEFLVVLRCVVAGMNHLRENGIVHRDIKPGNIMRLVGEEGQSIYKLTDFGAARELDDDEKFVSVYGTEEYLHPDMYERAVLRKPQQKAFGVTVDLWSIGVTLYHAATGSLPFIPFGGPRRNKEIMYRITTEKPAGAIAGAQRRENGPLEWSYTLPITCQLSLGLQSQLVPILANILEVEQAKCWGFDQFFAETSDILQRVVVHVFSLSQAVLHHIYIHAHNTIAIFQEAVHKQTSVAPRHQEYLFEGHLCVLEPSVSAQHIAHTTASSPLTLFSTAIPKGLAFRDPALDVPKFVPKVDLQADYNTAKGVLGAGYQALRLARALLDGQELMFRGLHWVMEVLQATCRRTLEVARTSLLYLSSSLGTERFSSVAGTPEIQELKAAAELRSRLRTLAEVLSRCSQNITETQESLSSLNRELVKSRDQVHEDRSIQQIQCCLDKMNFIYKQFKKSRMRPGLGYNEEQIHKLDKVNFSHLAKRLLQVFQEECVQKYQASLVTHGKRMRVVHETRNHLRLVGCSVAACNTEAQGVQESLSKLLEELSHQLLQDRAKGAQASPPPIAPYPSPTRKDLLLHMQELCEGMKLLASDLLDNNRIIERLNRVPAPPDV
Conditions: kinase IKKε; 1 µmol/L single concentration; read-out: %-inhibition at 1 µmol/L, IKKε.

Test [12] concerns the target panel of 255 wild-type kinases (Homo sapiens, UniProt P45984). Conditions: kinase JNK2; 1 µmol/L single concentration; read-out: %-inhibition at 1 µmol/L, JNK2.

In the case of `COC(=O)N[C@@H](C)CNc1nccc(-c2cn(C(C)C)nc2-c2cc(Cl)cc(NS(C)(=O)=O)c2F)n1` [encorafenib], the inhibition at 1 µM in test [1] is 9%; in test [2] it was 3.55%; in test [3], 3.78%; in [4] it was 7%; in test [5], 20%; in test [6] it was -1.42%. In addition, the inhibition at 1 µM was 4.58% in test [7]; 14% in [8]; 4% in test [9]; 5.42% in [10]; -3.36% in test [11]; 61% in [12].
As to `CCc1nc(C(N)=O)c(Nc2ccc(N3CCC(N4CCN(C)CC4)CC3)c(OC)c2)nc1NC1CCOCC1` [gilteritinib], the inhibition at 1 µM was 38% in test [1]; 98% in [2]; 48% in test [3]; 75% in [4]; 25% in test [5]; 98% in test [6]. The inhibition at 1 µM in [7] was 44%; in test [8], 94%; in test [9], 19%; in [10], 99%; in [11], 10%; in test [12] it was 44%.
Turning to `O=C(Nc1cnn2ccc(N3CCC[C@@H]3c3cc(F)ccc3F)nc12)N1CC[C@H](O)C1` [larotrectinib], the inhibition at 1 µM was 1.26% in [1]; -2.66% in test [2]; -7.4% in test [3]; 3.46% in [4]; -8% in test [5]; 2.82% in test [6]. The inhibition at 1 µM was -7% in [7]; 1.8% in test [8]; -1.62% in test [9]; -2.54% in test [10]; 7% in test [11]; -0.671% in [12].
Turning to `C[C@H]1Oc2cc(cnc2N)-c2c(nn(C)c2C#N)CN(C)C(=O)c2ccc(F)cc21` [lorlatinib], the inhibition at 1 µM was 38% in test [1]; 28% in test [2]; -0.881% in test [3]; 41% in test [4]; -6.46% in [5]; 11% in test [6]. Also, the inhibition at 1 µM is -2% in [7]; 7% in test [8]; -3.74% in test [9]; 73% in [10]; -3.78% in [11]; 3.24% in [12].
For `CCN1C(=O)N(c2c(F)c(OC)cc(OC)c2F)Cc2cnc3[nH]c(CN4CCOCC4)cc3c21` [pemigatinib], the inhibition at 1 µM was 97% in [1]; 24% in [2]; -5% in test [3]; 3% in [4]; -4.55% in [5]; 4.48% in test [6]. In addition, the inhibition at 1 µM was -7% in test [7]; 4% in [8]; -0.948% in test [9]; -4% in test [10]; 8.49% in test [11]; 1.27% in test [12].
With `FC(F)(F)c1ccc(CNc2ccc(Cc3c[nH]c4ncc(Cl)cc34)cn2)cn1` [pexidartinib], the inhibition at 1 µM in test [1] is 10%; in [2], 16%; in [3] it was 14%; in [4], 11%; in test [5] it was -3.46%; in test [6] it was 23%. The inhibition at 1 µM in test [7] is 24%; in test [8] it was 20%; in test [9], 4.68%; in test [10] it was 7%; in test [11], -1.81%; in [12], 2.5%.
`CO[C@]1(C(=O)N[C@@H](C)c2ccc(-n3cc(F)cn3)nc2)CC[C@H](c2nc(C)cc(Nc3cc(C)[nH]n3)n2)CC1` [pralsetinib]: the inhibition at 1 µM came to 0.775% in test [1]; 95% in test [2]; 23% in test [3]; 10% in test [4]; 0.94% in test [5]; 2.6% in [6]. Also, the inhibition at 1 µM in test [7] is 37%; in test [8], 6.58%; in [9] it was 1.41%; in test [10] it was 66%; in test [11], -5%; in [12], 5%.
On to `CCn1c(=O)c(-c2cc(NC(=O)Nc3ccccc3)c(F)cc2Br)cc2cnc(NC)cc21` [ripretinib], for which the inhibition at 1 µM was 0.452% in test [1]; 81% in test [2]; 3.31% in [3]; 6% in [4]; -8% in test [5]; 1.39% in [6]. For the same compound, the inhibition at 1 µM in test [7] was 0.401%; in test [8], 28%; in [9], 0.0973%; in test [10], 78%; in [11] it was -5%; in [12] it was 35%.
`COc1ccc(CN2C3CC2CN(c2ccc(-c4cc(OCC(C)(C)O)cn5ncc(C#N)c45)cn2)C3)cn1` [selpercatinib]: the inhibition at 1 µM in test [1] was 4%; in test [2], 84%; in test [3], 47%; in [4] it was 80%; in test [5], -1.7%; in test [6], 49%. The inhibition at 1 µM in test [7] was 43%; in [8], 6%; in test [9], -0.427%; in test [10], 79%; in [11], 20%; in test [12], -1.07%.

For the origin of these results see paper PMC9516332 (Frontiers in Oncology, 2022).
